{"source": "ChEMBL document CHEMBL1140613", "about": "“Antituberculosis drugs: ten years of research” (2007)", "test_system": "Mycobacterium tuberculosis", "assay": "Antituberculosis activity against Mycobacterium tuberculosis", "assay_type": "functional", "data": [{"smiles": "COc1nc2ccc(Br)cc2cc1[C@@H](c1ccccc1)[C@@](O)(CCN(C)C)c1cccc2ccccc12", "note": "[BEDAQUILINE]", "values": [{"measurement": "MIC99", "value": 0.06, "unit": "µg/mL"}]}]}
